According to patent US5747528A, “Chroman derivatives as anti-oxidants” (Warner-Lambert Company, priority 1997, dated 1998):

Tested on: VCAM-1
Assay: VCAM-1 assay: immunoassay of cell-surface VCAM-1 expression on TNF-stimulated human aortic endothelial cells (HAEC)
Format: cell-based
Settings: TNF 250 U/mL, overnight (18 hours)
Description: CELL CULTURE: Human aortic endothelial cells (CellSystem) Media: 50:50 mix of CS 3.0 (CellSystem) and MCDB-107 (Sigma) 10% fetal bovine serum (FBS) (Hyclone) Tissue culture plates (24 well) (Costar) TNF: recombinant Tumor necrosis factor-alpha (Genzyme)
IMMUNOASSAYS: 10% buffered Formalin (Baxter) Dulbecco's modified eagle medium (DMEM), Phosphate buffered saline (PBS) (Gibco) Bovine serum albumin (BSA) (Sigma) Anti-ICAM-1 antibody (R&D System, BBA#3) Sheep anti-mouse IgG (Cappel, #55558) Horseradish peroxidase (HRP)-KIT (Bio-Rad, #172-1064) Anti-VCAM-1 antibody (R&D System, BBA#6) Goat anti-mouse IgG+IgM, F(ab)2 fragments, biotin conjugated (Jackson Immuno Research Lab, #115-066-068) 125-I-Streptavidin (Amersham, #IM.236)
Human aortic endothelial cells (HAEC) were seeded at 100,000 cells/mL/well in 24 well cluster plates and placed in a 5% CO2 to […] humidified incubator at 37° C. […]
The cells were incubated with anti-VCAM-1 monoclonal antibody (1.25 μg/mL) for 2 hours at 37° C. […] Cells were washed again (4 times) and digested overnight with the addition of 500 μL of 1N NaOH and radioactivity contained in the digests counted. Cell-surface VCAM-1 expression is shown as radioactivity bound to the cell surface under various conditions.

## Cc1c(C)c2c(c(C)c1O)CCC(C)(COc1ccc(NC(=S)NC(c3ccccc3)c3ccccc3)cc1)O2 (stereo not shown) [Example 1, 1-Benzhydryl-3-[4-(6-hydroxy-2,5,7,8-tetramethyl-Chroman-2-ylmethoxy)-phenyl]-thiourea]
  IC50: 23.1 µM
